According to patent US20260083751A1, “ALLOSTERIC MODULATORS OF ANDROGEN RECEPTOR COACTIVATOR RECRUITMENT FOR CRPC THERAPY” (University of Pittsburgh – Of the Commonwealth System of …, priority 2022, published 2026):
Read-outs that look alike come from different tables or passages of the source.

Tests used:
Format in all cases: cell-based
DU-145 cells = assay: Prostate cancer cell line growth inhibition assay, DU-145; conditions: read-out: AR negative DU-145 GI50
Procedure: Prostate Cancer Cell Line Growth Inhibition Assays: The PC-3, DU-145, LNCaP, C4-2, and 22Rv1 PC cell line growth inhibition assays have been described previously (Fancher et al., Assay Drug Dev Technol. 2016, 14:453-477; Fancher et al., Assay Drug Dev Technol. 2019, 17:364-386). On day 1, each PC cell line was harvested, counted, and seeded into two 384-well assay plates, a time zero (T0) and a time 72 h (T72) plate. […] On day 2, 25 μL of the CellTiter-Glo® (CTG) (Promega Corporation, Madison, WI) detection reagent was dispensed into the wells of the TO assay plate using a Matrix electronic multichannel pipette, and the RLUs were captured on the SpectraMax® M5e (Molecular Devices LLC, Sunnyvale, CA) microtiter plate reader. […] On day 5, 25 μL of the CTG detection reagent was dispensed into the wells of the T72 assay plate using a Matrix electronic multichannel pipette, and the RLU's were captured on the SpectraMax® M5e microtiter plate reader platform.
For the 96-well AR-LBD H^3-DHT radioligand binding assay, eight minimum and maximum plate control wells were utilized to normalize the data. […] To normalize the 72 h compound exposure PC growth inhibition data, the signals from the compound treated wells were processed and expressed as % of the T72 DMSO plate controls. […]

[1] = tested on: AR-V7 directed transcriptional activation in PC3-AR-V7-EGFP cells; assay: AR-V7 driven PSA6.1-Luc and UBE2C-Luc reporter assays, results stated jointly; conditions: both reporters; read-out: IC50s, both PSA6-6.1-Luc and UBE2C-Luc reporters in PC3-AR-V7-EGFP cells (potency range in words)
Procedure: PSA6.1 Promoter Driven Luciferase Reporter Assay in PC3-AR-V7-GFP Cells: PC3-AR-V7-GFP cells were bulk transfected with a mixture of FuGENE® HD transfection agent and the PSA-6.1-Luc reporter plasmid (20 ng/well) combined at a 3:1 (μL:μg) ratio in Opti-MEM™ medium (Gibco, Gaithersburg, MD) that had been incubated for 25 min at RT before being added to PC3-AR-V7-GFP cells that were suspended in RPMI 1640 (Gibco) media containing 1% L-glutamine (Invitrogen), and 10% fetal bovine serum (Gemini Bio-products). Bulk transfected PC3-AR-V7-GFP cells were seeded into white opaque 384-well assay plates (Greiner Bio-one, #781080) at 3,000 cells per well in a volume of 40 μL and incubated at 5% CO2, 37° C., and 95% humidity for 24 h. After 24 h, 5 μL of compounds were transferred to assay wells and the plates were returned to the incubator for an additional 24 h before 25 μL of BrightGlo® luciferase reagent (Promega) was added to the wells and the RLU's were captured on a SpectraMax® M5e plate reader (Molecular Devices LLC) as described previously (Fancher et al., Assay Drug Dev Technol. 2019, 17:364-386).
UBE2C Promoter Driven Luciferase Reporter Assay in PC3-AR-V7-GFP Cells: The pGL4.28-UBE2C 20bpX3 luciferase reporter plasmid (Xu et al., Cancer Res 2015, 75:3663-71) was provided by Dr. Yan Dong from Tulane University. […]

[2] = Cytotoxicity counter screens to the reporter assays; conditions: counter screens to M2H, PSA-Luc, AR-V7 reporters, read-out: IC50 in cytotoxicity counter screen

Question: Which GI50 (DU-145 cells; 72 h, listed as 1) does the source give for `Cc1ccccc1-c1cc(O)c2c(c1)CN(c1nc(C(N)=O)cs1)CCO2` [Compound S1-1] here?
Answer: 60.5 µM

Question: And the IC50 [1]?
Answer: 10 to 100 µM

Question: Which GI50 (DU-145 cells; Homo sapiens, DU-145, 72 h) does the source give for `Cc1c(-c2ccccc2F)[nH]c2ccc(CNC(=O)CCc3cn[nH]c3)cc12` [Compound S3-11] here?
Answer: 15.9 µM

Question: For `Cc1nc(N)cc(N2CCOc3c(O)cc(-c4ccccc4C)cc3C2)n1` [Compound S1-2], which IC50 [2] is on record?
Answer: 45.6 µM

Question: And the IC50 at 24 h ([2]; human, PC3-AR-V7-EGFP cells)?
Answer: 45.9 µM

Question: And the IC50 [1]?
Answer: 10 to 100 µM
